Source: the supplement of paper PMC11208160

Experiment: recombinant barcode read abundance after kanamycin selection (control-corrected) (log10(CPM+1)); higher = more efficient recombination; sequences stand for … in AGTGCAGAGAAAATCGGCCAGTTTTCTCTGCCTGCAGTCCGCATGCCGT…AGATTTATGCAGCGGACTGCCTTTCTCCCAAAGTGATAAACCGGACAGTATCATGGACCGGTTTTCCCGGTAATCCGTATTTGCAAGGTTGGTTTCACT; site = the 11-nt target
Outline: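 Recombination efficiency comes from barcode counts at recombinant junctions, converted to counts per million, averaged and corrected against the control. Values appear as log10(CPM+1). They were obtained from a pooled E. coli screen in which each oligo paired a target with an IS621 bridge RNA target-binding loop, and cells were plated in duplicate on chloramphenicol/ampicillin LB agar or on chloramphenicol/ampicillin/kanamycin with 0.1 mM IPTG.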
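Note: IS621 recombinase and bridge RNA in Escherichia coli cells.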

| Sequence | recombinant barcode read abundance (log10) |
| --- | --- |
| TATGGGGCTTGGGTTCTAACCTGTTGCCT (site TATGTGGCTAG) | 0.0518 |
| TATGTACCTTGGGTTCTAACCTGTTGCCT (site AATGTACCTAG) | 0.052 |
| TATGTACCTTGGGTTCTAACCTGTTGCCT (site CATGTACCTAG) | 0.234 |
| TATGTACCTTGGGTTCTAACCTGTTGCCT (site GATGTACCTAG) | 0.101 |
| TATGTACCTTGGGTTCTAACCTGTTGCCT (site TATGTACCTAG) | 1.46 |
| TATGTAGCTTGGGTTCTAACCTGTTGCCA (site TATGTAGCTAG) | 0.22 |
| TATGTAGCTTGGGTTCTAACCTGTTGCCA (site TATGTAGCTCG) | 0.0344 |
| TATGTAGCTTGGGTTCTAACCTGTTGCCA (site TATGTAGCTGG) | 0.201 |
| TATGTAGCTTGGGTTCTAACCTGTTGCCA (site TATGTAGCTTG) | 1.05 |
| TATGTGGCTTGGGTTCTAACCTGTTGCCT (site TATGAGGCTAG) | 0.551 |
| TATGTGGCTTGGGTTCTAACCTGTTGCCT (site TATGCGGCTAG) | 0.296 |
| TATGTGGCTTGGGTTCTAACCTGTTGCCT (site TATGGGGCTAG) | 0.0271 |
| TATGTGGCTTGGGTTCTAACCTGTTGCCT (site TATGTGGCTAG) | 0.179 |
| TATGTGTCTTGGGTTCTAACCTGTTGCCT (site TAAGTGTCTAG) | 1.67 |
| TATGTGTCTTGGGTTCTAACCTGTTGCCT (site TACGTGTCTAG) | 0.509 |
| TATGTGTCTTGGGTTCTAACCTGTTGCCT (site TAGGTGTCTAG) | 0.0112 |
| TATGTGTCTTGGGTTCTAACCTGTTGCCT (site TATGTGTCTAG) | 2.01 |
| TATTACCCTTGGGTTCTAACCTGTTGCCT (site TATTAACCTAG) | 0.035 |
| TATTACCCTTGGGTTCTAACCTGTTGCCT (site TATTACCCTAG) | 0.739 |
| TATTACCCTTGGGTTCTAACCTGTTGCCT (site TATTAGCCTAG) | 0.0773 |
| TATTACCCTTGGGTTCTAACCTGTTGCCT (site TATTATCCTAG) | 0.12 |
| TATTCTACTTGGGTTCTAACCTGTTGCGG (site TATTCTACTAC) | 0.0937 |
| TATTCTACTTGGGTTCTAACCTGTTGCGG (site TATTCTACTCC) | 0.223 |
| TATTCTACTTGGGTTCTAACCTGTTGCGG (site TATTCTACTGC) | 0.101 |
| TATTCTACTTGGGTTCTAACCTGTTGCGG (site TATTCTACTTC) | 0.169 |
| TATTGGCCTTGGGTTCTAACCTGTTGCGT (site ACGACTACTCG) | 0.0203 |

| Sequence | recombinant barcode read abundance (log10) |
| --- | --- |
| TATTGGCCTTGGGTTCTAACCTGTTGCGT (site TATTGGCCTAC) | 0.202 |
| TATTTCTCTTGGGTTCTAACCTGTTGCCT (site AATTTCTCTAG) | 0.0527 |
| TATTTCTCTTGGGTTCTAACCTGTTGCCT (site CATTTCTCTAG) | 0.0799 |
| TATTTCTCTTGGGTTCTAACCTGTTGCCT (site GATTTCTCTAG) | 0.0942 |
| TATTTCTCTTGGGTTCTAACCTGTTGCCT (site TATTTCTCTAG) | 0.157 |
| TATTTGCCTTGGGTTCTAACCTGTTGCTG (site GCACCTGCTAG) | 0.183 |
| TATTTGCCTTGGGTTCTAACCTGTTGCTG (site TATTTGCCTCA) | 0.0916 |
| TCAAAGCCTTGGGTTCTAACCTGTTGCTG (site TCAAAGCCTCA) | 0.252 |
| TCAAAGCCTTGGGTTCTAACCTGTTGCTG (site TCACAGCCTCA) | 0.204 |
| TCAAAGCCTTGGGTTCTAACCTGTTGCTG (site TCAGAGCCTCA) | 0.372 |
| TCAAAGCCTTGGGTTCTAACCTGTTGCTG (site TCATAGCCTCA) | 0.217 |
| TCAAGACCTTGGGTTCTAACCTGTTGCCT (site TCAAGACCTAG) | 0.617 |
| TCAAGACCTTGGGTTCTAACCTGTTGCCT (site TCAAGACCTCG) | 0.0935 |
| TCACAGCCTTGGGTTCTAACCTGTTGCTG (site TCAAAGCCTCA) | 0.106 |
| TCACAGCCTTGGGTTCTAACCTGTTGCTG (site TCACAGCCTCA) | 0.476 |
| TCACAGCCTTGGGTTCTAACCTGTTGCTG (site TCAGAGCCTCA) | 0.176 |
| TCACAGCCTTGGGTTCTAACCTGTTGCTG (site TCATAGCCTCA) | 0.178 |
| TCACAGTCTTGGGTTCTAACCTGTTGCCT (site TAACACTCTAG) | 0.0324 |
| TCACAGTCTTGGGTTCTAACCTGTTGCCT (site TCACAGTCTAG) | 1.59 |
| TCACATGCTTGGGTTCTAACCTGTTGCCT (site TCACATGCTAG) | 1.28 |
| TCACATGCTTGGGTTCTAACCTGTTGCCT (site TCACCTGCTAG) | 0.0279 |
| TCACATGCTTGGGTTCTAACCTGTTGCCT (site TCACGTGCTAG) | 0.179 |
| TCACATGCTTGGGTTCTAACCTGTTGCCT (site TCACTTGCTAG) | 0.119 |
| TCACATTCTTGGGTTCTAACCTGTTGCCT (site TCAAATTCTAG) | 0.228 |
| TCACATTCTTGGGTTCTAACCTGTTGCCT (site TCACATTCTAG) | 0.31 |
| TCACATTCTTGGGTTCTAACCTGTTGCCT (site TCAGATTCTAG) | 0.183 |

| Sequence | recombinant barcode read abundance (log10) |
| --- | --- |
| TCACATTCTTGGGTTCTAACCTGTTGCCT (site TCATATTCTAG) | 0.155 |
| TCAGAGCCTTGGGTTCTAACCTGTTGCTG (site TCAAAGCCTCA) | 0.025 |
| TCAGAGCCTTGGGTTCTAACCTGTTGCTG (site TCACAGCCTCA) | 0.0728 |
| TCAGAGCCTTGGGTTCTAACCTGTTGCTG (site TCAGAGCCTCA) | 1.28 |
| TCAGAGCCTTGGGTTCTAACCTGTTGCTG (site TCATAGCCTCA) | 0.0059 |
| TCAGGAGCTTGGGTTCTAACCTGTTGCAG (site TCAGGAGCTCC) | 0.0921 |
| TCAGGAGCTTGGGTTCTAACCTGTTGCAG (site TCAGGAGCTCT) | 1.57 |
| TCATTGACTTGGGTTCTAACCTGTTGCCT (site TCATTGACTAG) | 0.622 |
| TCATTGACTTGGGTTCTAACCTGTTGCCT (site TTATTCACTAG) | 0.0739 |
| TCCAAATCTTGGGTTCTAACCTGTTGCCT (site AGACTGACTCC) | 0.109 |
| TCCAAATCTTGGGTTCTAACCTGTTGCCT (site TCCAAATCTAG) | 0.317 |
| TCCAACCCTTGGGTTCTAACCTGTTGCAG (site TCCAAACCTCT) | 0.066 |
| TCCAACCCTTGGGTTCTAACCTGTTGCAG (site TCCAACCCTCT) | 1.69 |
| TCCAACCCTTGGGTTCTAACCTGTTGCAG (site TCCAAGCCTCT) | 0.0523 |
| TCCAACCCTTGGGTTCTAACCTGTTGCAG (site TCCAATCCTCT) | 0.0309 |
| TCCAACCCTTGGGTTCTAACCTGTTGCTG (site GCCAAGCCTCA) | 0.0799 |
| TCCAACCCTTGGGTTCTAACCTGTTGCTG (site TCCAACCCTCA) | 1.65 |
| TCCAACCCTTGGGTTCTAACCTGTTGCTT (site CAGGGGACTGT) | 0.0296 |
| TCCAACCCTTGGGTTCTAACCTGTTGCTT (site TCCAACCCTAA) | 0.391 |
| TCCAACTCTTGGGTTCTAACCTGTTGCAC (site CATCCTACTAG) | 0.0443 |
| TCCAACTCTTGGGTTCTAACCTGTTGCAC (site TCCAACTCTGT) | 0.903 |
| TCCAAGGCTTGGGTTCTAACCTGTTGCTA (site CTGCGTACTCG) | 0.0788 |
| TCCAAGGCTTGGGTTCTAACCTGTTGCTA (site TCCAAGGCTTA) | 0.275 |
| TCCAATACTTGGGTTCTAACCTGTTGCCG (site TCCAACACTCG) | 0.0602 |
| TCCAATACTTGGGTTCTAACCTGTTGCCG (site TCCAATACTCG) | 0.269 |
